The structures appear in SMILES notation.

The assay deals with Target C. Briefly: RT-qPCR canonical junction panel assay, Target C mRNA. The assay is classed as cell-based. Conditions: Table 4, read-out: Target C IC50 (decrease in CJ mRNA levels). The essentials:
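IC50 is the concentration giving 50% CJ decrease, from a 4-parameter logistic fit of percent response; response derived from ΔΔCt against housekeeper and DMSO over a fixed ΔCt window, with canonical exon-junction qPCR in compound-treated K562 or A673 cells.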
(Real-time PCR tracks product formation cycle by cycle.)
As for `Cn1cc2cc(-c3ccc4nc(N5CCC(NC6CC6)C5)ccc4n3)c(O)c(F)c2n1` (racemic) [Compound 287, 5-{6-[3-(cyclopropylamino)pyrrolidin-1-yl]-1,5-naphthyridin-2-yl}-7-fluoro-2-methylindazol-6-ol; trifluoroacetic acid], the IC50 was < 0.1 µM.

As to `CC(C)N[C@@H]1CCN(c2ccc3nc(-c4cc5cn(C)nc5c(F)c4O)ccc3n2)C1` (single isomer, unassigned) [Compound 285], the 50% inhibitory concentration (IC50) was < 0.1 µM.

On to `CC(C)N[C@H]1CCN(c2ccc3nc(-c4cc5cn(C)nc5c(F)c4O)ccc3n2)C1` (single isomer, unassigned) [Compound 286], for which the IC50 is < 0.1 µM.

Consider `Cc1c(O)c(-c2ccc3nc(N4CC[C@@H](NC5CCC5)C4)ccc3n2)cc2cn(C)nc12` (single isomer, unassigned) [Compound 289], for which the IC50 is < 0.1 µM.

With `Cc1c(O)c(-c2ccc3nc(N4CC[C@H](NC5CCC5)C4)ccc3n2)cc2cn(C)nc12` (single isomer, unassigned) [Compound 290], the IC50 is < 0.1 µM.

With `Cc1nc2cc(O)c(-c3ccc4nc(N5CCC(NCC6CC6)C5)ccc4n3)cc2o1` (single isomer, unassigned) [Compound 291, 6-(6-{3-[(cyclopropylmethyl)amino]pyrrolidin-1-yl}-1,5-naphthyridin-2-yl)-2-methyl-1,3-benzoxazol-5-ol], the IC50 was 0.1 to 1 µM.

In the case of `Cc1nc2cc(O)c(-c3ccc4nc(N5CCC(NCC6CC6)C5)ccc4n3)cc2o1` (single isomer, unassigned) [Compound 292, 6-(6-{3-[(cyclopropylmethyl)amino]pyrrolidin-1-yl}-1,5-naphthyridin-2-yl)-2-methyl-1,3-benzoxazol-5-ol], the IC50 lay in the range of 0.1 to 1 µM.

Consider `Cc1nc2c(C)c(O)c(-c3ccc4nc(N5CC[C@@H](NCC6CC6)C5)ccc4n3)cc2o1` (single isomer, unassigned) [Compound 295], for which the IC50 is 0.1 to 1 µM.

Take `Cc1nc2c(C)c(O)c(-c3ccc4nc(N5CC[C@H](NCC6CC6)C5)ccc4n3)cc2o1` (single isomer, unassigned) [Compound 296]: the IC50 is < 0.1 µM.

On to `Cn1cc2cc(-c3ccc4nc(N5CC[C@@H](N[C@H]6C[C@@H](F)C6)C5)ccc4n3)c(O)cc2n1` (single isomer, unassigned) [Compound 300], for which the IC50 is < 0.1 µM.

`Cn1cc2cc(-c3ccc4nc(N5CC[C@@H](NCC6CC6)C5)ccc4n3)c(O)c(F)c2n1` (single isomer, unassigned) [Compound 303]: the IC50 was < 0.1 µM.

For `Cn1cc2cc(-c3ccc4nc(N5CC[C@H](NCC6CC6)C5)ccc4n3)c(O)c(F)c2n1` (single isomer, unassigned) [Compound 304], the IC50 is < 0.1 µM.

Take `Cn1cc2cc(-c3ccc4nc(N5CC[C@@H](NC6CC6)C5)ccc4n3)c(O)c(F)c2n1` (single isomer, unassigned) [Compound 305]: the IC50 was < 0.1 µM.

As to `Cn1cc2cc(-c3ccc4nc(N5CC[C@H](NC6CC6)C5)ccc4n3)c(O)c(F)c2n1` (single isomer, unassigned) [Compound 306], the half-inhibitory concentration (IC50) is < 0.1 µM.

Take `Cc1nc2c(F)c(O)c(-c3ccc4nc(N5CC[C@@H](NC6CCC6)C5)ccc4n3)cc2o1` (single isomer, unassigned) [Compound 307]: the half-maximal inhibitory concentration (IC50) is < 0.1 µM.

Take `Cc1nc2c(F)c(O)c(-c3ccc4nc(N5CC[C@H](NC6CCC6)C5)ccc4n3)cc2o1` (single isomer, unassigned) [Compound 308]: the IC50 is < 0.1 µM.

For `Cc1nc2c(C)c(O)c(-c3ccc4nc(N5CC[C@@H](NC6(C)CC6)C5)ccc4n3)cc2o1` (single isomer, unassigned) [Compound 310], the IC50 is < 0.1 µM.

Regarding `Cc1nc2c(C)c(O)c(-c3ccc4nc(N5CC[C@H](NC6(C)CC6)C5)ccc4n3)cc2o1` (single isomer, unassigned) [Compound 311], the half-inhibitory concentration (IC50) is 0.1 to 1 µM.

With `Cc1nc2c(C)c(O)c(-c3ccc4nc(N5CC[C@@H](NC(C)C)C5)ccc4n3)cc2o1` (single isomer, unassigned) [Compound 313], the IC50 was < 0.1 µM.

With `Cc1nc2c(C)c(O)c(-c3ccc4nc(N5CC[C@H](NC(C)C)C5)ccc4n3)cc2o1` (single isomer, unassigned) [Compound 314], the IC50 was < 0.1 µM.

Turning to `Cn1cc2cc(-c3ccc4nc(N5CC[C@@H](NC6CCC6)C5)ccc4n3)c(O)c(F)c2n1` (single isomer, unassigned) [Compound 316], the concentration for half-maximal inhibition (IC50) was < 0.1 µM.

As to `Cn1cc2cc(-c3ccc4nc(N5CC[C@H](NC6CCC6)C5)ccc4n3)c(O)c(F)c2n1` (single isomer, unassigned) [Compound 317], the 50% inhibitory concentration (IC50) was < 0.1 µM.

Consider `Cc1c(O)c(-c2ccc3nc(N4CC[C@@H](NC(C)C)C4)ccc3n2)cc2cn(C)nc12` (single isomer, unassigned) [Compound 319], for which the half-inhibitory concentration (IC50) was < 0.1 µM.

Take `Cc1c(O)c(-c2ccc3nc(N4CC[C@H](NCC5CC5)C4)ccc3n2)cc2cn(C)nc12` (single isomer, unassigned) [Compound 321]: the IC50 is < 0.1 µM.

Consider `Cc1c(O)c(-c2ccc3nc(N4CC[C@@H](NCC5CC5)C4)ccc3n2)cc2cn(C)nc12` (single isomer, unassigned) [Compound 322], for which the half-maximal inhibitory concentration (IC50) is < 0.1 µM.

For `Cc1nc2c(F)c(O)c(-c3ccc4nc(N5CC[C@@H](NCC6CC6)C5)ccc4n3)cc2o1` (single isomer, unassigned) [Compound 323], the IC50 was < 0.1 µM.

With `Cc1nc2c(F)c(O)c(-c3ccc4nc(N5CC[C@H](NCC6CC6)C5)ccc4n3)cc2o1` (single isomer, unassigned) [Compound 324], the IC50 is < 0.1 µM.

Take `Cc1nc2c(F)c(O)c(-c3ccc4nc(N5CC[C@@H](NC(C)C)C5)ccc4n3)cc2o1` (single isomer, unassigned) [Compound 329]: the half-maximal inhibitory concentration (IC50) was < 0.1 µM.

Consider `Cc1nc2c(F)c(O)c(-c3ccc4nc(N5CC[C@H](NC(C)C)C5)ccc4n3)cc2o1` (single isomer, unassigned) [Compound 330], for which the IC50 was < 0.1 µM.

With `Cn1cc2cc(-c3ccc4nc(N5CC[C@H](N[C@H]6C[C@H](F)C6)C5)ccc4n3)c(O)c(F)c2n1` (single isomer, unassigned) [Compound 347], the IC50 was < 0.1 µM.

For `Cc1nc2cc(O)c(-c3ccc4nc(N5CC[C@@H](N[C@H]6C[C@H](F)C6)C5)ccc4n3)cc2o1` (single isomer, unassigned) [Compound 348], the IC50 lay within 0.1 to 1 µM.

With `Cn1cc2cc(-c3ccc4nc(N5CC[C@@H](N[C@H]6C[C@H](F)C6)C5)ccc4n3)c(O)c(F)c2n1` (single isomer, unassigned) [Compound 349], the half-inhibitory concentration (IC50) was < 0.1 µM.

For the compound `Cc1nc2c(C)c(O)c(-c3ccc4nc(N5CC[C@H](N[C@H]6C[C@H](F)C6)C5)ccc4n3)cc2o1` (single isomer, unassigned) [Compound 351], the half-maximal inhibitory concentration (IC50) was < 0.1 µM.

Turning to `Cc1nc2c(C)c(O)c(-c3ccc4nc(N5CC[C@@H](N[C@H]6C[C@H](F)C6)C5)ccc4n3)cc2o1` (single isomer, unassigned) [Compound 352], the IC50 is < 0.1 µM.

Take `Cc1nc2c(F)c(O)c(-c3ccc4nc(N5CC[C@@H](NC6(C)CC6)C5)ccc4n3)cc2o1` (stereo in doubt) [Compound 326, 4-fluoro-2-methyl-6-{6-[(3 S)-3-[(1-methylcyclopropyl)amino]pyrrolidin-1-yl]-1,5-naphthyridin-2-yl}-1,3-benzoxazol-5-ol]: the concentration for half-maximal inhibition (IC50) is < 0.1 µM.

For orientation: IC50 means the concentration that inhibits the measured activity by half.

Values taken from patent publication US20250092065A1, “2-(INDAZOL-5-YL)-6-(PIPERIDIN-4-YL)-1,7-NAPHTHYRIDINE DERIVATIVES AND RELATED COMPOUNDS AS MODULATORS FOR SPLICING NUCLEIC ACIDS AND FOR THE TREATMENT OF PROLIFERATIVE DISEASES” (REMIX THERAPEUTICS INC., priority 2022, published 2025).
